“And” between values parts separate entries of the source, which are not always exact repeats. Equal entries are not always repeated. Toxic doses and inconclusive results are not listed.
Tested on: P388 leukemia ip, CD2F1 mice, survival T/C
Test: NCI In Vivo Anticancer Drug Screen. Data for tumor model P388 Leukemia (intraperitoneal) in CD2F1 (CDF1) mice
Settings: endpoint: median survival time, higher = longer survival
Procedure, shortened: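 Mice carrying the transplanted tumor received test compound or vehicle. Survival was recorded in each group, and the value is the treated-group measurement divided by that of the vehicle-treated control group.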

[1] = dose: 12.5 mg/kg/injection, schedule: Q04DX003 (ip), vehicle: Klucel (hydroxypropylcellulose) (HPC)
[2] = dose: 60.0 mg/kg/injection, schedule: Q01DX005 (ip), vehicle: saline with Tween-80
[3] = dose: 120.0 mg/kg/injection, schedule: Q01DX005 (ip), vehicle: saline with Tween-80
[4] = dose: 240.0 mg/kg/injection, schedule: Q01DX005 (ip), vehicle: saline with Tween-80
[5] = dose: 12.5 mg/kg/injection, schedule: Q01DX009 (ip), vehicle: saline
[6] = dose: 25.0 mg/kg/injection, schedule: Q01DX009 (ip), vehicle: saline
[7] = dose: 50.0 mg/kg/injection, schedule: Q01DX009 (ip), vehicle: saline
[8] = dose: 50.0 mg/kg/injection, schedule: Q01DX005 (ip), vehicle: saline with Tween-80
[9] = dose: 200.0 mg/kg/injection, schedule: Q01DX005 (ip), vehicle: saline with Tween-80
[10] = dose: 100.0 mg/kg/injection, schedule: Q01DX005 (ip), vehicle: saline with Tween-80
[11] = dose: 100.0 mg/kg/injection, schedule: Q01DX009 (ip), vehicle: saline with Tween-80
[12] = dose: 200.0 mg/kg/injection, schedule: Q01DX009 (ip), vehicle: saline with Tween-80
[13] = dose: 100.0 mg/kg/injection, schedule: Q04DX002 (ip), vehicle: saline with Tween-80
[14] = dose: 200.0 mg/kg/injection, schedule: Q04DX002 (ip), vehicle: saline with Tween-80
[15] = dose: 400.0 mg/kg/injection, schedule: Q04DX002 (ip), vehicle: saline with Tween-80

`CCOC(=O)Cc1c[nH]c2ccc(N(CCCl)CCCl)cc12` was tested, and the T/C (dose: 5.0 mg/kg/injection, schedule: Q04DX003 (ip), vehicle: Klucel (hydroxypropylcellulose) (HPC)) was 204 % of control, the T/C (dose: 8.0 mg/kg/injection, schedule: Q04DX003 (ip), vehicle: Klucel (hydroxypropylcellulose) (HPC)) was 245 % of control and the T/C [1] was 245 % of control.
In the case of `C#CC(C(C)C)N(CCO)CCCC` (stereo unspecified), the T/C [2] is reported as 105 % of control, the T/C [3] is reported as 104 % of control and the T/C [4] is reported as 102 % of control.
For `CSc1nc2c(nnn2C2OCC(O)C(O)C2O)c(=O)[nH]1` (stereo unspecified), the T/C [2] was 93 % of control, the T/C [3] was 93 % of control and the T/C [4] was 86 % of control.
`CCCCCCCCCc1cc(CN2CCCCC2)c(O)c(CN2CCCCC2)c1` was tested, and the T/C [5] was 112 % of control, the T/C [6] was 108 % of control and the T/C [7] was 102 % of control.
For `Cc1cc(C)c(N=Cc2cccs2)c(C)c1`, the T/C [5] was 107 % of control, the T/C [6] was 111 % of control and the T/C [7] was 101 % of control and 106 % of control. The T/C (dose: 200.0 mg/kg/injection, schedule: Q01DX009 (ip), vehicle: saline) was 92 % of control.
In the case of `O=C(NCCCC1NC(=O)/C(=C(O)/C=C/C=C/c2ccccc2)C1=O)OCc1ccccc1` (stereo unspecified), the T/C [8] is reported as 88 % of control and the T/C [9] is reported as 92 % of control.
With `CCCCCCCCCCCCCCCC[N+](C)(C)CCOS(C)(=O)=O` the T/C (dose: 12.5 mg/kg/injection, schedule: Q01DX009 (ip), vehicle: saline with Tween-80) was 110 % of control and the T/C (dose: 25.0 mg/kg/injection, schedule: Q01DX009 (ip), vehicle: saline with Tween-80) was 116 % of control.
In the case of `O/N=C(Sc1ccccn1)/C(=N/O)Sc1ccccn1`, the T/C [8] is reported as 101 % of control, the T/C [10] is reported as 109 % of control and the T/C [9] is reported as 113 % of control.
With `CCCCN1CCN(c2ccc([N+](=O)[O-])c3no[n+]([O-])c23)CC1` the T/C (dose: 8.0 mg/kg/injection, schedule: Q04DX003 (ip), vehicle: suspension in saline) was 102 % of control, the T/C (dose: 16.0 mg/kg/injection, schedule: Q04DX003 (ip), vehicle: suspension in saline) was 99 % of control and the T/C (dose: 32.0 mg/kg/injection, schedule: Q04DX003 (ip), vehicle: suspension in saline) was 108 % of control.
In the case of `CCN(CC)CCn1ncc(Sc2cc([N+](=O)[O-])ccc2N)c(Cl)c1=O`, the T/C [2] is reported as 100 % of control and the T/C [3] is reported as 89 % of control.
In the case of `O=C(/C=C/c1ccc(Cl)cc1)c1ccccc1`, the T/C (dose: 50.0 mg/kg/injection, schedule: Q01DX009 (ip), vehicle: saline with Tween-80) is reported as 105 % of control, the T/C [11] is reported as 103 % of control and the T/C [12] is reported as 92 % of control.
In the case of `OC1COC(c2nn(-c3ccccc3)c3nc4ccc(Cl)cc4nc23)C1O` (stereo unspecified), the T/C [13] is reported as 107 % of control, the T/C [14] is reported as 97 % of control and the T/C [15] is reported as 95 % of control.
`O=C1C(S(=O)(=O)O)=CC(=Nc2ccc(O)cc2)c2ccccc21` was tested, and the T/C [8] was 95 % of control, the T/C [10] was 107 % of control and the T/C [9] was 102 % of control.
For `CC1=CC(=Nc2ccc(N(CCCl)CCCl)cc2)C(C)=C(C)C1=O`, the T/C (dose: 100.0 mg/kg/injection, schedule: Q01DX001 (ip), vehicle: Klucel (hydroxypropylcellulose) (HPC)) was 116 % of control and 123 % of control.
With `NCCS(=O)(=O)O` the T/C (dose: 100.0 mg/kg/injection, schedule: Q01DX009 (ip), vehicle: water) was 90 % of control, the T/C (dose: 200.0 mg/kg/injection, schedule: Q01DX009 (ip), vehicle: water) was 86 % of control and the T/C (dose: 400.0 mg/kg/injection, schedule: Q01DX009 (ip), vehicle: water) was 86 % of control. The T/C (dose: 800.0 mg/kg/injection, schedule: Q01DX009 (ip), vehicle: water) was 90 % of control.
With `CN(C)c1ccc(NC2=C(Cl)C(=O)C(Nc3ccc(N(C)C)cc3)=C(Cl)C2=O)cc1` the T/C (dose: 25.0 mg/kg/injection, schedule: Q01DX005 (ip), vehicle: saline with Tween-80) was 101 % of control, the T/C [8] was 92 % of control and the T/C [10] was 88 % of control.
`c1ccc(N[n+]2ccc3ccccc3c2)cc1` was tested, and the T/C (dose: 6.25 mg/kg/injection, schedule: Q01DX009 (ip), vehicle: distilled water + alcohol) was 104 % of control, the T/C (dose: 12.5 mg/kg/injection, schedule: Q01DX009 (ip), vehicle: distilled water + alcohol) was 104 % of control and the T/C (dose: 25.0 mg/kg/injection, schedule: Q01DX009 (ip), vehicle: distilled water + alcohol) was 102 % of control.
For `O=C(CC(=NCCN=C(CC(=O)c1ccccc1)c1ccccc1)c1ccccc1)c1ccccc1.[Cu]`, the T/C [13] was 98 % of control, the T/C [14] was 96 % of control and the T/C [15] was 95 % of control.
For `CN1CCC2(C)CC1Cc1ccc(O)cc12` (stereo unspecified), the T/C (dose: 3.12 mg/kg/injection, schedule: Q01DX005 (ip), vehicle: saline) was 96 % of control, the T/C (dose: 6.25 mg/kg/injection, schedule: Q01DX005 (ip), vehicle: saline) was 104 % of control and the T/C (dose: 12.5 mg/kg/injection, schedule: Q01DX005 (ip), vehicle: saline) was 105 % of control. For the same compound, the T/C (dose: 25.0 mg/kg/injection, schedule: Q01DX005 (ip), vehicle: saline) was 96 % of control.
For `CCOC(=O)C(C(C)=O)C(=O)C(C)(C)C` (stereo unspecified), the T/C (dose: 6.25 mg/kg/injection, schedule: Q01DX009 (ip), vehicle: saline) was 112 % of control, the T/C [5] was 102 % of control and the T/C [6] was 102 % of control. For the same compound, the T/C [11] was 91 % of control and the T/C [12] was 104 % of control.
In the case of `C1CN2CCN1CC2.[Cl][Pt]([Cl])[Cl]`, the T/C [13] is reported as 117 % of control and the T/C [14] is reported as 117 % of control.
For `CC[n+]1cccc(C(=O)c2ccccc2)c1`, the T/C (dose: 3.75 mg/kg/injection, schedule: Q01DX005 (ip), vehicle: saline) was 103 % of control, the T/C (dose: 7.5 mg/kg/injection, schedule: Q01DX005 (ip), vehicle: saline) was 97 % of control and the T/C (dose: 15.0 mg/kg/injection, schedule: Q01DX005 (ip), vehicle: saline) was 102 % of control. For the same compound, the T/C (dose: 30.0 mg/kg/injection, schedule: Q01DX005 (ip), vehicle: saline) was 105 % of control.
With `CCCOc1ccc(C(=O)NCc2cccnc2)cc1C(=O)NCc1cccnc1` the T/C [8] was 100 % of control, the T/C [10] was 99 % of control and the T/C [9] was 100 % of control.
In the case of `CCCCCCCCCCCCCCCC(=O)N(CCC#N)C(C)(C)CCC(C)(C)N(CCC#N)C(=O)CCCCCCCCCCCCCCC`, the T/C (dose: 12.5 mg/kg/injection, schedule: Q01DX009 (ip), vehicle: Klucel (hydroxypropylcellulose) (HPC)) is reported as 99 % of control, the T/C [1] is reported as 88 % of control and the T/C (dose: 25.0 mg/kg/injection, schedule: Q01DX009 (ip), vehicle: Klucel (hydroxypropylcellulose) (HPC)) is reported as 98 % of control. The T/C (dose: 25.0 mg/kg/injection, schedule: Q04DX003 (ip), vehicle: Klucel (hydroxypropylcellulose) (HPC)) was 88 % of control, the T/C (dose: 50.0 mg/kg/injection, schedule: Q01DX009 (ip), vehicle: Klucel (hydroxypropylcellulose) (HPC)) was 97 % of control and the T/C (dose: 100.0 mg/kg/injection, schedule: Q01DX009 (ip), vehicle: Klucel (hydroxypropylcellulose) (HPC)) was 91 % of control. The T/C (dose: 200.0 mg/kg/injection, schedule: Q01DX009 (ip), vehicle: Klucel (hydroxypropylcellulose) (HPC)) was 91 % of control and the T/C (dose: 200.0 mg/kg/injection, schedule: Q04DX003 (ip), vehicle: Klucel (hydroxypropylcellulose) (HPC)) was 94 % of control.
In the case of `N#Cc1ccc(NN=NCCCCCl)cc1`, the T/C (dose: 3.12 mg/kg/injection, schedule: Q01DX005 (ip), vehicle: distilled water + Tween-80) is reported as 94 % of control, the T/C (dose: 6.25 mg/kg/injection, schedule: Q01DX005 (ip), vehicle: distilled water + Tween-80) is reported as 88 % of control and the T/C (dose: 12.5 mg/kg/injection, schedule: Q01DX005 (ip), vehicle: distilled water + Tween-80) is reported as 91 % of control. The T/C (dose: 25.0 mg/kg/injection, schedule: Q01DX005 (ip), vehicle: distilled water + Tween-80) was 94 % of control and the T/C (dose: 50.0 mg/kg/injection, schedule: Q01DX005 (ip), vehicle: distilled water + Tween-80) was 105 % of control.
In the case of `NNC(=O)C1CC2c3ccccc3C1c1ccccc12` (stereo unspecified), the T/C [2] is reported as 101 % of control, the T/C [3] is reported as 99 % of control and the T/C [4] is reported as 97 % of control.
For `O=[N+]([O-])c1ccc(-c2nnn(C3CC3)c2N2CCCCC2)cc1`, the T/C (dose: 100.0 mg/kg/injection, schedule: Q04DX002 (ip), vehicle: Klucel (hydroxypropylcellulose) (HPC)) was 100 % of control, the T/C (dose: 200.0 mg/kg/injection, schedule: Q04DX002 (ip), vehicle: Klucel (hydroxypropylcellulose) (HPC)) was 96 % of control and the T/C (dose: 400.0 mg/kg/injection, schedule: Q04DX002 (ip), vehicle: Klucel (hydroxypropylcellulose) (HPC)) was 101 % of control.
In the case of `C=C(Cl)C(=NC(C)(C)C)N(CC)CC`, the T/C (dose: 12.5 mg/kg/injection, schedule: Q01DX005 (ip), vehicle: Klucel (hydroxypropylcellulose) (HPC)) is reported as 104 % of control, the T/C (dose: 25.0 mg/kg/injection, schedule: Q01DX005 (ip), vehicle: Klucel (hydroxypropylcellulose) (HPC)) is reported as 104 % of control and the T/C (dose: 50.0 mg/kg/injection, schedule: Q01DX005 (ip), vehicle: Klucel (hydroxypropylcellulose) (HPC)) is reported as 107 % of control and 110 % of control.
